The test system of assay [1] is doxorubicin-induced cardiotoxicity in mice. The experiment in a line: Chronic mouse model of doxorubicin-induced cardiotoxicity. Format: in vivo. Conditions: DOX-treated mice; sildenafil citrate 0.7 mg/kg ip. How it is done: Mice are treated with doxorubicin in the presence or absence of clinically relevant doses of sildenafil citrate, and the left ventricular systolic function is correlateed using 2-dimensional (2D) contrast echocardiography. The actions of dosing sildenafil citrate 24 hours prior to each dose of doxorubicin (Total of 3 doses) versus dosing sildenafil citrate daily for 28 days is tested. Histological examination is performed to assess the ultrastructural alterations including nuclear condensation with coarse chromatin clumping, sarcoplasmic reticulum vacuolization, and mitochondrial fine structure disruption which are known to occur widely in doxorubicin-treated cardiomyocytes. […] The role of sildenafil in attenuation of DOX-induced apoptosis and attenuation of mitochondrial transition pore opening is assessed. The contribution of […] channel opening in rescuing DOX-induced cell death in sildenafil treated mice is determined by using 5-hydroxydecanoate, a selective blocker of the […] channel.
Materials and methods. […] Weight of all animals is measured weekly and gross heart weight is measured prior to freezing in liquid nitrogen. […] Specifically, nuclear chromatinmargination, mitochondrial swelling, cristae disappearance/matrix clearing, presence or absence of contractile apparatus disarray, and sarcoplasmic reticulum vacuolization is measured.

The test system of assay [2] is cardiac myocytes from adult mice. The experiment in a line: Simulated ischemia/reoxygenation in isolated cardiac myocytes (trypan blue, TUNEL). Conditions: 10 μM, 40 min simulated ischemia. Format: cell-based. How it is done:
The ability of sildenafil to confer protection against necrosis and apoptosis in cardiac myocytes was tested. Freshly isolated myocytes from adult mice were exposed to simulated ischemia with or without sildenafil (10 μM) for 40 minutes followed by reoxygenation for 60 minutes. The ischemic buffer contained (in mM): 118 NaCl, 24 NaHCO3, 1.0 NaH2PO4, 2.5 CaCl2-2H2O, 1.2 MgCl2, 20 sodium lactate, 16 KCl, 10 2-deoxyglucose (pH adjusted to 6.2). At the end of this protocol, necrotic cell death was evaluated by uptake of trypan blue using a phase contrast microscope. To determine apoptosis, the myocytes were reoxygenated for an extended period of 18 hrs after incubating them in the ischemic buffer for 40 minutes. Apoptosis was determined using the terminal deoxynucleotide nick-end labeling (TUNEL) assay which detects cells undergoing programmed cell death due to DNA fragmentation.

Assay [3] relates to neonatal mouse cardiac myocytes. Format: cell-based. The note with it: DOX 0.5–5 μM with 1 μM sildenafil. How it is done:
Neonatal mouse myocytes in culture are incubated with 0.5–5 μM of DOX (in the presence or absence of 1 μM sildenafil) for 18 hours. The cells are then incubated with drug free growth medium for an additional 24 hours. Cytotoxicity of DOX is quantitatively assessed by measuring the percentage of cells killed and the amount of creatine kinase (CK) released into the media. In addition, a trypan blue exclusion assay and propidium iodide nuclear stain are used to quantitate cell death. Since DOX induces cardiomyopathy through the release of reactive oxygen species, lipid peroxidation in the cells is also measured as an index of oxidative damage.
Neonatal mouse cardiac myocyte cultures are used for membrane potential studies. Cells in culture are treated with 0.5–5 μM of DOX (in the presence or absence of 1 μM sildenafil) for 18 hours. The cells are then incubated with drug free growth medium for an additional 24 hours. Additional groups are included where the cells are treated with a mitoKATP channel blocker (5-hydroxydecanoate, 100 μM), surface channel blocker (HMR1098, 30 μM) or cyclosporine, a mitochondrial membrane potential (Ψm) blocker (5 μM). For assessment of apoptosis, the TUNEL assay is used, which is an accurate method for distinguishing apoptosis from necrosis by specifically detecting DNA cleavage and chromatin condensation characteristic of apoptosis. Additionally, positive TUNEL staining directly correlates with the more typical biochemical and morphological aspects of apoptosis. Since an understanding of cell morphology is critical for data interpretation, apoptotic morphology is simultaneously assessed according to accepted scientific criteria previously described (Nor-Avi, 1999). The in situ staining of DNA strand breaks detected by the TUNEL assay along with subsequent morphological observation via epifluorescent, confocal, and electron microscopy, provides significant and reliable data regarding the identification of apoptotic cells, even in tissue samples where apoptosis represents a small segment of the population (Manning 1994). In addition, several other key indicators of apoptosis including annexin-V, cytosolic cytochrome c, caspase 3, caspase 8, as well as poly (ADP-ribose) polymerase cleavage in these groups, are measured. Mitochondrial membrane potential (Ψm) using a fluorescent indicator probe, JC-1 (Molecular Probes, Eugene, Oreg.) is measured.

The structures appear in SMILES notation.

We go through one compound from US7091207B2, “Method of treating myocardial infarction with PDE-5 inhibitors” (Virginia Commonwealth University, priority 2002, dated 2006).

As to `CCCc1nn(C)c2c(=O)[nH]c(-c3cc(S(=O)(=O)N4CCN(C)CC4)ccc3OCC)nc12` [sildenafil], in assay [1], the LV function entry is listed as “improves LV function” and the “ultrastructural damage to the heart” value was “reduces ultrastructural damage to the heart”. In assay [2] (60 min reoxygenation), the “necrotic cell death by trypan blue uptake” value is listed as “significantly more blue (i.e. viable) cells”. Moreover, the “apoptosis by TUNEL staining” value in assay [2] (18 hrs reoxygenation) is recorded as “rescues myocytes against apoptotic cell death”. For the same compound, in assay [3], the “effect on DOX-induced apoptosis indicators” value is given as “aborted” and the “effect on DOX-induced parameters of injury (CK release, trypan blue uptake, lipid hydroperoxides)” value is listed as “reversed”.
